# From patent publication US20090238808A1, “Process for the identification of novel enzyme interacting compounds” (priority 2005, published 2009)
# Legend:
# Experiment in all cases: In-lysate competition binding with kinobeads, Jurkat lysate, iTRAQ MS, relative intensity of identified proteins (Table 22)
# Conditions in all cases: DMSO control = 1.0
# [1] = biological target: T1, proteins captured on kinobeads from Jurkat cell lysate (Homo sapiens, UniProt O14965)
# T1 construct: endogenous in cells; host or cells: Jurkat clone E6-1 lysate
# Procedure: (§1) This example illustrates competition binding in cell lysates (see particularly the third aspect of the invention). A test compound, Bisindolylmaleimide VIII (Bis VIII, a well known kinase inhibitor; Davies et al., 2000. Specificity and mechanism of action of some commonly used protein kinase inhibitors. Biochemical Journal 351 (Pt 1): 95-105) was added to a cell lysate thereby allowing the test compound to bind to the target proteins in the lysate. Then the lysate was contacted with the kinobeads affinity matrix to capture remaining free target proteins. The proteins bound to the kinobeads matrix were then eluted with detergent-containing buffer, separated on a SDS-polyacryamide gel and analyzed by immunodetection (Western blots) or mass spectrometry detection.
# (§2) For the quantitative detection of proteins by mass spectrometry proteins were eluted from the affinity matrix and subsequently separated by SDS-Polyacrylamide gel elecrophoresis. Suitable gel areas were cut out and subjected to in-gel proteolytic digestion with trypsin.
# (§3) Four tryptic digest samples (corresponding to three different Bis VIII concentrations in the lysate and one DMSO control) were labeled with ITRAQ reagents and the combined samples were analyzed in a single LC-MS/MS mass spectrometry analysis followed by peak quantification in the MS/MS spectrum (Ross et al., 2004. Multiplexed protein quantitation in Saccharomyces cerevisiae using amine-reactive isobaric tagging reagents. Mol. Cell. Proteomics 3(12): 1154-1169). […] Binding curves for individual kinases are shown (FIG. 5). The relative intensity 50 (RI50) values representing the affinity of kinase-compound pairs are similar to IC50 values reported by kinase enzyme assays (Davies et al., 2000. Specificity and mechanism of action of some commonly used protein kinase inhibitors. Biochemical Journal 351 (Pt 1): 95-105).
# (§4) Aliqots of Jurkat lysate (10 mg protein) were incubated with different Bis VIII concentrations for one hour at 4° C. (0.025 μM, 0.074 μM, 0.22 μM, 0.67 μM, 2.0 μM and 6.0 μM final concentration of Bis VIII). To this end Bis VIII solutions were prepared in 100% DMSO as solvent that corresponded to 200 fold desired final Bis VIII concentration (Bis VIII from Alexis Biochemicals cat. number ALX 270-056). Five μl of these solutions were added to 1 ml of lysate resulting in the indicated final concentrations. For a control experiment 5 μl of DMSO without Bis VIII were used.
# (§5) To each preincubated lysate sample 40 μl of kinobeads (see example 1) were added and incubated for one hour at 4° C. During the incubation the tubes were rotated on an end-over-end shaker (Roto Shake Genie, Scientific Industries Inc.). Beads were collected by centrifugation, transfered to Mobicol-columns (MoBiTech 10055) and washed with 10 ml 1×DP buffer containing 0.4% NP40 detergent, followed by a wash with 5 ml 1×DP buffer with 0.2% NP40. To elute the bound proteins, 100 μl 2×SDS sample buffer was added, the column was heated for 30 minutes at 50° C. and the eluate was transferred to a microfuge tube by centrifugation. Proteins were then separated by SDS-Polyacrylamide electrophoresis (SDS-PAGE). The composition and preparation of buffers is described in example 2.
# (§6) The peptide extracts of samples treated with different concentrations of the test compound (0.074 μM, 0.22 μM and 0.67 μM Bis VIII) and the solvent control (0.5% DMSO) were treated with different isomers of the isobaric tagging reagent (iTRAQ Reagents Multiplex Kit, part number 4352135, Applied Biosystems, Foster City, Calif., USA). The iTRAQ reagents are a set of multiplexed, amine-specific, stable isotope reagents that can label all peptides in up to four different biological samples enabling simultaneous identification and quantitation of peptides. The iTRAQ reagents were used according to instructions provided by the manufacturer. […]
# [2] = biological target: T2, proteins captured on kinobeads from Jurkat cell lysate (Homo sapiens, UniProt P12931)
# T2 construct: endogenous in cells; host or cells: Jurkat clone E6-1 lysate
# T2 sequence (P12931 whole entry): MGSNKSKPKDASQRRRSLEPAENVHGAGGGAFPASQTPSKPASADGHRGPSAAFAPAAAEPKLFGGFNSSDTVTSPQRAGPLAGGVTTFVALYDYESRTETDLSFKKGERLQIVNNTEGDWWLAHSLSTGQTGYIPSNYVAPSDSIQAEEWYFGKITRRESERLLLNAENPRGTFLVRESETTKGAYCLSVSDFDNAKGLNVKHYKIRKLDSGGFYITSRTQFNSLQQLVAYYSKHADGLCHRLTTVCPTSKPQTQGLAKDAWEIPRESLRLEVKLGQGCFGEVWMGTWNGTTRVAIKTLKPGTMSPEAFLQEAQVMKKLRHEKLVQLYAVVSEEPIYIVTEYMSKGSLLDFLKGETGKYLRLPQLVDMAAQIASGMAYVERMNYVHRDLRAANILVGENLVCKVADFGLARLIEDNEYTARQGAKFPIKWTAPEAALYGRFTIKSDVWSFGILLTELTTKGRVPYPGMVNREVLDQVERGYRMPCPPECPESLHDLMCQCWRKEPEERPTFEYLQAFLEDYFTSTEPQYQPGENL
# Procedure: as §1, §2, §3, §4, §5, §6
# [3] = biological target: T3, proteins captured on kinobeads from Jurkat cell lysate (Homo sapiens, UniProt P28482)
# T3 construct: endogenous in cells; host or cells: Jurkat clone E6-1 lysate
# T3 sequence (P28482 whole entry): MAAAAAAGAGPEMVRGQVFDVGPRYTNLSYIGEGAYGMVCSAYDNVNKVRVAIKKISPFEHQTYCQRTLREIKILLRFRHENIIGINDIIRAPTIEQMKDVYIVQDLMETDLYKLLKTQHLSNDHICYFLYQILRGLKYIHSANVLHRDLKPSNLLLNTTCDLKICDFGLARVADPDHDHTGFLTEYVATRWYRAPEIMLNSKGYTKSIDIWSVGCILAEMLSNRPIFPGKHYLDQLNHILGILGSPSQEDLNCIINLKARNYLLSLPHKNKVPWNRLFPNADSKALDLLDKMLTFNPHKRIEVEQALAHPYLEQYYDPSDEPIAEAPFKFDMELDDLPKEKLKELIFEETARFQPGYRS
# Procedure: as §1, §2, §3, §4, §5, §6
# [4] = biological target: T4, proteins captured on kinobeads from Jurkat cell lysate (Homo sapiens, UniProt P41240)
# T4 construct: endogenous in cells; host or cells: Jurkat clone E6-1 lysate
# Procedure: as §1, §2, §3, §4, §5, §6
# [5] = biological target: T5, proteins captured on kinobeads from Jurkat cell lysate (Homo sapiens, UniProt P42684)
# T5 construct: endogenous in cells; host or cells: Jurkat clone E6-1 lysate
# T5 sequence (P42684 whole entry): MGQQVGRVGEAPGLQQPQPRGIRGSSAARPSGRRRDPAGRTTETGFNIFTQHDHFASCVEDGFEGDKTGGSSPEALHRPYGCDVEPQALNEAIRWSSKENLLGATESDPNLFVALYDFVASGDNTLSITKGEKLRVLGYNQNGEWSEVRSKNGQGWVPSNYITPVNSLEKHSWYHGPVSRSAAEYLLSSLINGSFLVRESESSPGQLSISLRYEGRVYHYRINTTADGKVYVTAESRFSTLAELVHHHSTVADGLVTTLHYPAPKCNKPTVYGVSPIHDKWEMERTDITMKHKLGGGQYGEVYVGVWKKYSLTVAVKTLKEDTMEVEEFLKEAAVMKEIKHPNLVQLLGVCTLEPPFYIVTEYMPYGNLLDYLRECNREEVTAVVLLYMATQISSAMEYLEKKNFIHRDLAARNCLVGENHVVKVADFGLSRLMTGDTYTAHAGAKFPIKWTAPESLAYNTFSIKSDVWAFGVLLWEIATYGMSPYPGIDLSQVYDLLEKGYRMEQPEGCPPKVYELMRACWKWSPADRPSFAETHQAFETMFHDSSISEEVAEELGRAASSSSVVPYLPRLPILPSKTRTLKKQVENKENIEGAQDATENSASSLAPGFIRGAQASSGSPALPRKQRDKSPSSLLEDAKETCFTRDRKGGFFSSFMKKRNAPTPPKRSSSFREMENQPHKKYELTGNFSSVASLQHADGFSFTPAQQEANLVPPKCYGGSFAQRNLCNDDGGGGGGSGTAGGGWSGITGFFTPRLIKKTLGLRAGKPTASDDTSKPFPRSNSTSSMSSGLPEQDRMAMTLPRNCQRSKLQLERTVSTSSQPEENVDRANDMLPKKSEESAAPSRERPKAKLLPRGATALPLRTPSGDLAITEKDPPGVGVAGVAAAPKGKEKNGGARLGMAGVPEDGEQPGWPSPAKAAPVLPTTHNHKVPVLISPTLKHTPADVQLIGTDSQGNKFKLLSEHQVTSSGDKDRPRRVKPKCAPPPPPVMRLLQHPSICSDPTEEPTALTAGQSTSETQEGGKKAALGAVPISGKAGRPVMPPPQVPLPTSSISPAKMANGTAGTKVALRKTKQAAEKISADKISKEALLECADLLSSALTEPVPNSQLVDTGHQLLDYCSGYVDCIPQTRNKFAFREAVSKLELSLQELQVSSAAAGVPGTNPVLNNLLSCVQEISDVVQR
# Procedure: as §1, §2, §3, §4, §5, §6
# [6] = biological target: T6, proteins captured on kinobeads from Jurkat cell lysate (Homo sapiens, UniProt P50613)
# T6 construct: endogenous in cells; host or cells: Jurkat clone E6-1 lysate
# Procedure: as §1, §2, §3, §4, §5, §6
# [7] = biological target: T7, proteins captured on kinobeads from Jurkat cell lysate (Homo sapiens, UniProt P54619)
# T7 construct: endogenous in cells; host or cells: Jurkat clone E6-1 lysate
# Procedure: as §1, §2, §3, §4, §5, §6
# [8] = biological target: T8, proteins captured on kinobeads from Jurkat cell lysate (Homo sapiens, UniProt Q00535)
# T8 construct: endogenous in cells; host or cells: Jurkat clone E6-1 lysate
# Procedure: as §1, §2, §3, §4, §5, §6
# [9] = biological target: T9, proteins captured on kinobeads from Jurkat cell lysate (Homo sapiens, UniProt Q08881)
# T9 construct: endogenous in cells; host or cells: Jurkat clone E6-1 lysate
# Procedure: as §1, §2, §3, §4, §5, §6
# [10] = biological target: T10, proteins captured on kinobeads from Jurkat cell lysate (Homo sapiens, UniProt Q13131)
# T10 construct: endogenous in cells; host or cells: Jurkat clone E6-1 lysate
# Procedure: as §1, §2, §3, §4, §5, §6
# [11] = biological target: T11, proteins captured on kinobeads from Jurkat cell lysate (Homo sapiens, UniProt Q13555)
# T11 construct: endogenous in cells; host or cells: Jurkat clone E6-1 lysate
# T11 sequence (Q13555 whole entry): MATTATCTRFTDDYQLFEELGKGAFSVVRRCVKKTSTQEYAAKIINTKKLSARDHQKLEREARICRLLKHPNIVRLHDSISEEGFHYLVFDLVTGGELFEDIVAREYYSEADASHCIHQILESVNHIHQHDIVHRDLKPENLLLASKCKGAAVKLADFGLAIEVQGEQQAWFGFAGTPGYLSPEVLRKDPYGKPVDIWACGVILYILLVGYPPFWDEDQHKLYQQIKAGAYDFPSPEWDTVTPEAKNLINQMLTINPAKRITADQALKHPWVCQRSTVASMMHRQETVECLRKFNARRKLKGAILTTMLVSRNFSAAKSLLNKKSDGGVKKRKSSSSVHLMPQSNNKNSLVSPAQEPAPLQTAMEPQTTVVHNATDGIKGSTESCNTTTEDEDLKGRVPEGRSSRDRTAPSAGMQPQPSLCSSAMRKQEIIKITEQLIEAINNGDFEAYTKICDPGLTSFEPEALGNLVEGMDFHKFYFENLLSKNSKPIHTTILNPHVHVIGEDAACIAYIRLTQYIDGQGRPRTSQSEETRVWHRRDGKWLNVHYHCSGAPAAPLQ
# Procedure: as §1, §2, §3, §4, §5, §6
# [12] = biological target: T12, proteins captured on kinobeads from Jurkat cell lysate (Homo sapiens, UniProt Q2M2I8)
# T12 construct: endogenous in cells; host or cells: Jurkat clone E6-1 lysate
# T12 sequence (Q2M2I8 whole entry): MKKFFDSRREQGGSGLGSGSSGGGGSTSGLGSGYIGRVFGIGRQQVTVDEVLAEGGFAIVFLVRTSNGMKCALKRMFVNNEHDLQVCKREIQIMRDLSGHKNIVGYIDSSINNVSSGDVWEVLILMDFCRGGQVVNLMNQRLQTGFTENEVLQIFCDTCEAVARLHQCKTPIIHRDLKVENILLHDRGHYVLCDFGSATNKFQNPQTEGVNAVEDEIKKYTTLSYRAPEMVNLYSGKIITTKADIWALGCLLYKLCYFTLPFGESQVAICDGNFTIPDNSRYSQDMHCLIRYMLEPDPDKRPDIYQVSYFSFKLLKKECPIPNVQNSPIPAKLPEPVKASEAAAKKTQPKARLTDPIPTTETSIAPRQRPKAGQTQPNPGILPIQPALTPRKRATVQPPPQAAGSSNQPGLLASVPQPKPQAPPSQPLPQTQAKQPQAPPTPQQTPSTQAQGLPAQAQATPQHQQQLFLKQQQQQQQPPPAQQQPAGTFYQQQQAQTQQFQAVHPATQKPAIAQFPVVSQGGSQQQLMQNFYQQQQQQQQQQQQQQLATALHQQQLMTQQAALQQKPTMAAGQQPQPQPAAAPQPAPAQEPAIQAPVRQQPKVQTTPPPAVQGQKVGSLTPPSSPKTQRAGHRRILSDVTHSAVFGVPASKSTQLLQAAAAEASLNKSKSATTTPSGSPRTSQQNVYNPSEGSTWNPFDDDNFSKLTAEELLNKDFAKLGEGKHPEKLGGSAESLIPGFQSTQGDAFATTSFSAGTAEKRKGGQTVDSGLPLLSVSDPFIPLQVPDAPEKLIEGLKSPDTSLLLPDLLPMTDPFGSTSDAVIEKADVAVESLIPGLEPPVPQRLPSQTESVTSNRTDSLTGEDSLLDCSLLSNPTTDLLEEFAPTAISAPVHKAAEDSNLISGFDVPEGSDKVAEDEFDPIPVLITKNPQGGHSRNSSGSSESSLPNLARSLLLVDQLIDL
# Procedure: as §1, §2, §3, §4, §5, §6
# [13] = biological target: T13, proteins captured on kinobeads from Jurkat cell lysate (Homo sapiens, UniProt Q9H0K1)
# T13 construct: endogenous in cells; host or cells: Jurkat clone E6-1 lysate
# T13 sequence (Q9H0K1 whole entry): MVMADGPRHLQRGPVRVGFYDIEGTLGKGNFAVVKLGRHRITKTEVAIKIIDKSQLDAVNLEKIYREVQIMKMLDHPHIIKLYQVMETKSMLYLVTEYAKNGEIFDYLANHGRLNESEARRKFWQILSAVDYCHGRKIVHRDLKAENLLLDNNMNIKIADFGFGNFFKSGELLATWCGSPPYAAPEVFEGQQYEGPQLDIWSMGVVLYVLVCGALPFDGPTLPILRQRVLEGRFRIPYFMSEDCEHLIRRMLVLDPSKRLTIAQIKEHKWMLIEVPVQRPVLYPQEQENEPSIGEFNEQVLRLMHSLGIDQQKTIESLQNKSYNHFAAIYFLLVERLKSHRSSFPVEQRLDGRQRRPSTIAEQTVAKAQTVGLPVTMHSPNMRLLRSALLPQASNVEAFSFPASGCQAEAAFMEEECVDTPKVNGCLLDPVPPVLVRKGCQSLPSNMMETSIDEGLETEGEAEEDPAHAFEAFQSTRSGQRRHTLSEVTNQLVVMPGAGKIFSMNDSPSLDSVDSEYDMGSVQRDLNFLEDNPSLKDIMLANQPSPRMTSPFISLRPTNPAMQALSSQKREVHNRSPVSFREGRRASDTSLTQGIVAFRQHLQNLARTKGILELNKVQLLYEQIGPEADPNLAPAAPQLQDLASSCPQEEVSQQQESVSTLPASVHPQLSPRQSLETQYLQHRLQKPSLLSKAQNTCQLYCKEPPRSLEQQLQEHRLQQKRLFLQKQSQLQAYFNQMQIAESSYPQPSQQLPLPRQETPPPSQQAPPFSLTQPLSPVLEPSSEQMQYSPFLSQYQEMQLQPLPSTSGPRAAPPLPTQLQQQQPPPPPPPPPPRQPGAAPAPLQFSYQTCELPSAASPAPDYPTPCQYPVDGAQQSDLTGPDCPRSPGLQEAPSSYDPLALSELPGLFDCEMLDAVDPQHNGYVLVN
# Procedure: as §1, §2, §3, §4, §5, §6
# [14] = biological target: T14, proteins captured on kinobeads from Jurkat cell lysate (Homo sapiens, UniProt Q9UHD2)
# T14 construct: endogenous in cells; host or cells: Jurkat clone E6-1 lysate
# Procedure: as §1, §2, §3, §4, §5, §6
# [15] = biological target: T15, proteins captured on kinobeads from Jurkat cell lysate (Homo sapiens, UniProt Q9Y478)
# T15 construct: endogenous in cells; host or cells: Jurkat clone E6-1 lysate
# T15 sequence (Q9Y478 whole entry): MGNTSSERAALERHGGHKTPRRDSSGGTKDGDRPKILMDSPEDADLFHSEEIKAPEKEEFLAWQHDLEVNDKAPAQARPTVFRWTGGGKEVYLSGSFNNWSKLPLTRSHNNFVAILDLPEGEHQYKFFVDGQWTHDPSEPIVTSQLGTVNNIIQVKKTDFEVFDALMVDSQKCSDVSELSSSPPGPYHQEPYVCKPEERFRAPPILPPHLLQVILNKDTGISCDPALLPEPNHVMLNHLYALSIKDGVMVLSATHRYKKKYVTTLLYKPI
# Procedure: as §1, §2, §3, §4, §5, §6
smiles,measurement,setting,value
"Cn1cc(C2=C(c3cn(CCCN)c4ccccc34)C(=O)NC2=O)c2ccccc21 [Bis VIII, Bisindolylmaleimide VIII]","Relative Intensity, AurA (STK6)",[1]; 0.074 uM in lysate,0.90
same,"Relative Intensity, AurA (STK6)",[1]; 0.67 uM in lysate,0.87
same,"Relative Intensity, SRC",[2]; 0.074 uM in lysate,0.93
same,"Relative Intensity, SRC",[2]; 0.67 uM in lysate,0.94
same,"Relative Intensity, Erk2 (MAPK1)",[3]; 0.074 uM in lysate,0.89
same,"Relative Intensity, Erk2 (MAPK1)",[3]; 0.67 uM in lysate,0.98
same,"Relative Intensity, CSK",[4]; 0.074 uM in lysate,0.84
same,"Relative Intensity, CSK",[4]; 0.67 uM in lysate,0.89
same,"Relative Intensity, ARG (ABL2)",[5]; 0.074 uM in lysate,0.96
same,"Relative Intensity, ARG (ABL2)",[5]; 0.67 uM in lysate,0.91
same,"Relative Intensity, CDK7",[6]; 0.074 uM in lysate,1.03
same,"Relative Intensity, CDK7",[6]; 0.67 uM in lysate,0.89
same,"Relative Intensity, PRKAG1",[7]; 0.074 uM in lysate,0.78
same,"Relative Intensity, PRKAG1",[7]; 0.67 uM in lysate,0.68
same,"Relative Intensity, CDK5",[8]; 0.074 uM in lysate,0.92
same,"Relative Intensity, CDK5",[8]; 0.67 uM in lysate,0.95
same,"Relative Intensity, ITK",[9]; 0.074 uM in lysate,0.80
same,"Relative Intensity, ITK",[9]; 0.67 uM in lysate,0.91
same,"Relative Intensity, AMPKa1 (PRKAA1)",[10]; 0.074 uM in lysate,0.88
same,"Relative Intensity, AMPKa1 (PRKAA1)",[10]; 0.67 uM in lysate,0.91
same,"Relative Intensity, CaMK2g",[11]; 0.074 uM in lysate,0.83
same,"Relative Intensity, CaMK2g",[11]; 0.67 uM in lysate,0.88
same,"Relative Intensity, AAK1",[12]; 0.074 uM in lysate,0.82
same,"Relative Intensity, AAK1",[12]; 0.67 uM in lysate,0.75
same,"Relative Intensity, QIK (SNF1LK2)",[13]; 0.074 uM in lysate,0.93
same,"Relative Intensity, QIK (SNF1LK2)",[13]; 0.67 uM in lysate,0.98
same,"Relative Intensity, TBK1",[14]; 0.074 uM in lysate,1.05
same,"Relative Intensity, TBK1",[14]; 0.67 uM in lysate,1.14
same,"Relative Intensity, PRKAB1",[15]; 0.074 uM in lysate,0.91
same,"Relative Intensity, PRKAB1",[15]; 0.67 uM in lysate,0.79
